Target: T1, human TRPV1 (Homo sapiens, UniProt Q8NER1)
T1 construct: expressed in transfected cells
Format: cell-based
Method: Oocytes were held at −60 mV and data normalised to currents elicited by 10 μM capsaicin. (D) Reversibility of DkTx and Y35G evoked rat TRPV1 response at the indicated peptide concentrations using TEVC oocytes. Data points represent the fraction of currents remaining during the washout as a ratio to the maximal current evoked by each sample. (E) Washout shown as fractional current determined by whole‐cell patch clamp recordings from HEK293 cells expressing TRPV1 (voltage‐clamped at −80 mV). […] The time constant for decay was not fitted and calculated in panels D and E, as it could not be accurately determined for data sets with minimal washout over the experimental time course. All data are mean ± standard error of the mean (n=5–7).

T1 sequence (Q8NER1 whole entry): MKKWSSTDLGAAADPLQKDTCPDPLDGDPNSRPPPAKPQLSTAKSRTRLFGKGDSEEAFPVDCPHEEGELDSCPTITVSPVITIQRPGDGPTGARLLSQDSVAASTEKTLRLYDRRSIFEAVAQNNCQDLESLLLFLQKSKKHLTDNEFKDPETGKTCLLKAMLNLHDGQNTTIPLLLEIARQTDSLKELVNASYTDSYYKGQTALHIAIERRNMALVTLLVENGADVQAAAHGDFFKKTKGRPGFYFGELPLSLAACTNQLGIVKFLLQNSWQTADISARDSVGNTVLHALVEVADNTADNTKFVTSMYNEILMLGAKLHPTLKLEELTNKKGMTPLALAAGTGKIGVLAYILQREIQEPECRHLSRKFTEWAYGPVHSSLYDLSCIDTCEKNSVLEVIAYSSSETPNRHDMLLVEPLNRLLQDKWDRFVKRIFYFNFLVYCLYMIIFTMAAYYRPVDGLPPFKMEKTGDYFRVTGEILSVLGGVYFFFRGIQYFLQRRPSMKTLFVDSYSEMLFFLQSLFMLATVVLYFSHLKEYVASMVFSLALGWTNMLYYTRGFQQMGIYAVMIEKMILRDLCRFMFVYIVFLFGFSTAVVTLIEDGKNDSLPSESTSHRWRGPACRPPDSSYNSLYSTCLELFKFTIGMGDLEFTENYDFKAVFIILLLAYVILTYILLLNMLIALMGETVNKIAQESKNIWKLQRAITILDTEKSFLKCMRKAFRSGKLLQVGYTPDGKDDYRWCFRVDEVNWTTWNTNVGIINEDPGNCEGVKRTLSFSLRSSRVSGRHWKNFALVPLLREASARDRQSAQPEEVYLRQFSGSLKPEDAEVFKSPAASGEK

SMILES | reversibility of TRPV1 current upon washing | inhibition of iDkTx-evoked currents (10 μM ruthenium red against 2 μM iDkTx, +80 mV, HEK293, Figure 1E–F)
COc1cc(CNC(=O)CCCC/C=C/C(C)C)ccc1O [capsaicin] | rapidly reversible upon washing | –
N.N.N.N.N.N.N.N.N.N.N.N.N.N.[Cl-].[Cl-].[Cl-].[Cl-].[Cl-].[Cl-].[O-2].[O-2].[Ru+3].[Ru+3].[Ru+4] [ruthenium red] | – | fully inhibited

Source: PMC10952689 (Angewandte Chemie (International Ed. in English), 2023)
